Several values for one entry are separate records, joined by “and”; a condition that tells them apart may be missing. Equal values may be shown once.
System: 521955-158-R2-J5-PDC complex spheroid growth
Assay: Anticancer human tumor 521955-158-R2-J5-PDC patient-derived pancreatic carcinoma cell line growth inhibition [AhR]
Conditions: for viability, T/C: stronger effect = lower value
Description: Multicellular complex tumor spheroid response to aryl hydrocarbon receptor antagonists in combination with a variety of drugs and investigational agents in selected tumor cell lines
The current study was undertaken to assess response to aryl hydrocarbon receptor antagonists in combination with standard-of-care drugs and investigational agents in solid tumor complex spheroid models. Complex spheroids include a stromal component modeled by human endothelial cells (HUVEC) and fibroblasts modeled by human mesenchymal stem cells (MSCs). The concentration ranges selected for each drug and investigational agent were based upon clinically achievable concentrations if the clinical Cmax of the agent was known.
Compounds. The drugs and investigational agents: BAY 2416964 (NSC825713), GNF351 (NSC835774), CH-223191 (NSC835775), CPI-455 (NSC825282), aza-TdCyd (NSC777586), decitabine (NSC127716), belinostat (NSC758774), entinostat (NSC756642), pevonedistat (NSC761192), tazemetostat (NSC777109), talazoparib (NSC765396), olaparib (NSC753686), selinexor (NSC780203), nedisertib (M3814, NSC802822), bortezomib (NSC756655), venetoclax (NSC766270), doxorubicin (NSC123127), elimusertib (BAY189344, NSC800525), ceralasertib (AZD6738, NSC777638), TAK-243 (NSC785004), alisertib (NSC759677), etoposide (NSC141540), topotecan (NSC609699), eribulin (NSC707389), gemcitabine (NSC613327), carboplatin (NSC241240), cisplatin (NSC119875), and SN-38 (NSC673596) were obtained from the National Cancer Institute (NCI) Developmental Therapeutics Program Chemical Repository (32). The FDA-approved anticancer drug set is available from the Developmental Therapeutics Program at https://dtp.cancer.gov/organization/dscb/obtaining/available plates.htm. […] The stock solutions were prepared in dimethyl sulfoxide (DMSO, Sigma-Aldrich, St. Louis, MO, cat. D2650), except for the platinum compounds which were prepared in saline (Quality Biological, Gaithersburg, MD, cat. 114-055-101), at 800-fold the tested concentration and stored at -70 degrees C prior to their use. All drugs and investigational agents were tested over a range starting from a high concentration at or near the clinical Cmax and decreasing in half-log increments. If the clinical Cmax for an agent had not been determined, the highest concentration tested was 10 microM (Table 1).
Cell Culture. All cells were maintained in an incubator at 37 degrees C and 5% CO2 with 95% humidity. The PDC lines were cultured according to standard operating procedures established by the NCI PDMR (https://pdmr.cancer.gov). Briefly, all PDCs were thawed and cultured in Matrigel-coated flasks prepared with a working solution of 1X Ham's F-12 nutrient mix, without supplementation (Invitrogen, Waltham, MA, cat. 11765054), 100 U/mL penicillin-streptomycin (Invitrogen, cat. 15140122), and 2.5% Matrigel (Corning Inc., Corning, NY, cat. 354248) for the first three passages. All PDCs were cultured in complete DMEM/F-12 media containing advanced DMEM/F-12 (Invitrogen, cat. 12634028), 4.9% defined fetal bovine serum, heat inactivated (HyClone Laboratories Inc., Logan, UT, cat. SH30070.03HI), 389 ng/mL hydrocortisone (Sigma-Aldrich, cat. H4001), 9.7 ng/mL human EGF recombinant protein (Invitrogen, cat. PHG0313), 23.4 microg/mL adenine (Sigma-Aldrich, cat. A2786), 97.3 U/mL penicillin-streptomycin (Invitrogen, cat. 15140122), 1.9 mM L-glutamine (Invitrogen, cat. 25030081), and 9.7 microM Y-27632 dihydrochloride (Tocris Bioscience, Bristol, United Kingdom, cat. 1254). The PDCs were cultured in complete DMEM/F12 media without 10 microM Y-27632 dihydrochloride for at least two passages prior to the screen. The established cell lines NCI-H1341 and […] were cultured in DMEM/F-12, HEPES (Invitrogen, cat. 11330032), 5% defined fetal bovine serum (HyClone Laboratories Inc., cat. SH30070.03), ITS premix universal culture supplement [insulin (5 microg/mL), transferrin (5 microg/mL), and selenious acid (5 ng/mL)] […]
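For viability, T/C in this document: spheroids mix tumor cells with HUVEC endothelium and human MSC stroma; luminescence taken as viability surrogate after a week of drug exposure.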

Row | SMILES | IC50 (curve of compound) | viability, T/C (compound 0.0316 µM) | viability, T/C (compound 0.1 µM) | viability, T/C (compound 0.316 µM) | viability, T/C (compound 1 µM) | viability, T/C (compound 3.16 µM) | viability, T/C (compound 10 µM) | also measured
1 | CC(C)CC(NC(=O)C(Cc1ccccc1)NC(=O)c1cnccn1)B(O)O (stereo not drawn) | 16.5 nM and 13.1 nM and 4.71 nM | – | – | – | – | – | – | viability, T/C (compound 0.000949 µM): 93.7% and 85.5% and 84.3%; viability, T/C (compound 0.003 µM): 94.1% and 71.8% and 78.5%; viability, T/C (compound 0.03 µM): 1.41% and 1.04% and 0.32%; viability, T/C (compound 0.0949 µM): 0.32% and 0.33% and 0.22%; viability, T/C (compound 0.3 µM): 0.33% and 0.39% (2×)
2 | CC(C)c1c(-c2ccccc2)nc2c(C#N)c[nH]n2c1=O | > 10000 nM | 86.8% and 83.8% and 96.4% | 103% and 100% and 89.5% | 96.2% and 76.9% and 87.5% | 85.3% and 75.7% and 64.5% | 88.3% and 95.4% and 70.7% | 83.1% and 71.7% and 86.4% | –
3 | CC(CO)NC(=O)c1cc(-c2ccc(Cl)cc2)nn(-c2cnn(C)c2)c1=O (stereo not drawn) | – | – | – | – | – | – | 87.4% [middle of 19 runs] | IC50 (compound alone, run of 05/31/2022): > 10000 nM
4 | CC1COCCN1c1cc(-c2ccnn2C)c2ccnc(-c3ccn[nH]3)c2n1 (stereo not drawn) | 95.5 nM and 176 nM and 84.6 nM | 97.8% and 84.1% and 95.1% | 48% and 79.2% and 42.4% | 15.5% and 19.4% and 16.3% | 19.2% and 18.6% and 16% | – | – | viability, T/C (compound 0.00316 µM): 96.3% and 94.8% and 101%; viability, T/C (compound 0.01 µM): 98.2% and 92.8% and 104%
5 | CC1COCCN1c1cc(C2(S(C)(=N)=O)CC2)nc(-c2ccnc3[nH]ccc23)n1 (stereo not drawn) | 2470 nM and 2110 nM and 2160 nM | 100% and 91.6% and 125% | 108% and 93.5% and 106% | 107% and 85.8% and 101% | 114% and 85.9% and 106% | 34.1% and 30.7% and 22.6% | 18.6% and 15.7% and 17.3% | –
6 | CC[C@@]1(O)C(=O)OCc2c1cc1n(c2=O)Cc2cc3c(CN(C)C)c(O)ccc3nc2-1 | 52.7 nM and 21.7 nM and 17.1 nM | 62.3% and 43.2% and 34.2% | 33.1% and 22.1% and 23.6% | – | – | – | – | viability, T/C (compound 0.000316 µM): 93.2% and 80.6% and 77.3%; viability, T/C (compound 0.001 µM): 90.4% and 95% and 67.7%; viability, T/C (compound 0.00316 µM): 80.1% and 84.2% and 84.3%; viability, T/C (compound 0.01 µM): 86.6% and 65.1% and 63.1%
7 | CCc1c2c(nc3ccc(O)cc13)-c1cc3c(c(=O)n1C2)COC(=O)[C@]3(O)CC | 6.31 nM and 6.13 nM and 2.39 nM | – | – | – | – | – | – | viability, T/C (compound 0.000949 µM): 73.4% and 63.5% and 74.2%; viability, T/C (compound 0.003 µM): 71% and 71.7% and 44.2%; viability, T/C (compound 0.00949 µM): 38.3% and 39.2% and 18.2%; viability, T/C (compound 0.03 µM): 22% and 28.9% and 12%; viability, T/C (compound 0.0949 µM): 16.9% and 22.7% and 10%; viability, T/C (compound 0.3 µM): 14.9% and 13.4% and 8.11%
8 | COc1cc(C2c3cc4c(cc3C(OC3OC5COC(C)OC5C(O)C3O)C3COC(=O)C23)OCO4)cc(OC)c1O (stereo not drawn) | 1380 nM and 706 nM and 636 nM | 92.5% and 85.2% and 81.7% | 98.5% and 79.4% and 77% | 76.4% and 80.6% and 66.2% | 56.4% and 36.8% and 39.9% | 36.9% and 23.6% and 22.1% | 31% and 20.7% and 19.1% | –

Now from value to compound, other results behind:

Row | IC50 (curve of compound) | SMILES | viability, T/C (compound 0.0316 µM) | viability, T/C (compound 0.1 µM) | viability, T/C (compound 0.316 µM) | viability, T/C (compound 1 µM) | viability, T/C (compound 3.16 µM) | viability, T/C (compound 10 µM) | also measured
9 | > 10000 nM | CC1(C)CCC(CN2CCN(c3ccc(C(=O)NS(=O)(=O)c4ccc(NCC5CCOCC5)c([N+](=O)[O-])c4)c(Oc4cnc5[nH]ccc5c4)c3)CC2)=C(c2ccc(Cl)cc2)C1 | 96.5% and 101% and 99% | 71.9% and 97.7% and 79.6% | 105% and 111% and 106% | 90.7% and 91% and 77.8% | 96% and 87.3% and 90.5% | 73.7% and 91.8% and 83.6% | –
10 | > 3000 nM | CCN(c1cc(-c2ccc(CN3CCOCC3)cc2)cc(C(=O)NCc2c(C)cc(C)[nH]c2=O)c1C)C1CCOCC1 | – | – | – | – | – | – | viability, T/C (compound 0.00949 µM): 104% and 116% and 106%; viability, T/C (compound 0.03 µM): 111% (2×) and 113%; viability, T/C (compound 0.0949 µM): 93.7% and 98.9% and 87%; viability, T/C (compound 0.3 µM): 97.9% and 94.6% and 81.7%; viability, T/C (compound 0.949 µM): 99.9% and 70.8% and 81.8%; viability, T/C (compound 3 µM): 96.3% and 84.7% and 88%
11 | > 10000 nM and 8540 nM | COc1cc(Nc2ncc3c(n2)-c2ccc(Cl)cc2C(c2c(F)cccc2OC)=NC3)ccc1C(=O)O | 77.4% and 67.8% and 86.3% | 85.5% and 81.5% and 77.1% | 58.4% and 76.3% and 50% | 57.4% and 60% and 62% | 82.1% and 66.4% and 67% | 66.9% and 47.4% and 49.2% | –
12 | > 10000 nM and 6700 nM and 6430 nM | COc1ccc([C@@H](O)c2cc(-c3ncnc4cc(N5CCOCC5)ccc34)c(F)cc2Cl)nn1 | 103% and 74.5% and 83% | 98.5% and 84.4% and 87.8% | 104% and 83.6% and 80.7% | 100% and 66.2% and 81.5% | 75.2% and 63.6% and 64.8% | 52% and 43.6% and 40.8% | –

Source: PubChem BioAssay AID1918998 (Molecular Pharmacology Branch, DTP, NCI, 2023)
